This passage reports IC50 and MIC results from ChEMBL document CHEMBL6092146 (Bioorg Med Chem, 2024).

The subject of test [1] is HepG2. The test can be described thus: cells. As to conditions: Homo sapiens, HepG2, 48 h.
The test system of test [2] is MCF7. The experiment in a line: Antiproliferative activity against human MCF7 cells assessed as reduction in cell viability incubated for 48 hrs by CCK-8 assay. The class given is functional, cell-based. The following applies: MCF7, 48 h.
Test [3] relates to HEK-293T. The test can be described thus: Antiproliferative activity against HEK293T cells assessed as reduction in cell viability incubated for 48 hrs by CCK-8 assay. The class given is functional, cell-based. The following applies: Homo sapiens. For orientation: Tetrazolium assays rely on reduction of a dye to a coloured formazan, in cell work by metabolically active cells.

Test [4] has as its system KB. The test can be described thus: Antiproliferative activity against human KB cells assessed as reduction in cell viability incubated for 48 hrs by CCK-8 assay. In kind it is functional, cell-based.
For test [5], the system named is HeLa. The experiment in a line: Antiproliferative activity against human HeLa cells assessed as reduction in cell viability incubated for 48 hrs by CCK-8 assay. The class given is functional, cell-based.
Test [6] concerns the target Cholinesterase (Equus caballus, UniProt P81908). The experiment in a line: Inhibition of equine serum BuChE using butyrylthiocholine iodide as substrate measured for 30 mins by ELLman's method. For orientation: Ellman's reagent forms a yellow product with free thiols.
For test [7], the target named is Acetylcholinesterase (Electrophorus electricus, UniProt O42275). The experiment in a line: Inhibition of electric eel AchE using acetylthiocholine as substrate incubated for 30 mins by Ellman's method.
Acetylcholinesterase, sequence (O42275 whole entry): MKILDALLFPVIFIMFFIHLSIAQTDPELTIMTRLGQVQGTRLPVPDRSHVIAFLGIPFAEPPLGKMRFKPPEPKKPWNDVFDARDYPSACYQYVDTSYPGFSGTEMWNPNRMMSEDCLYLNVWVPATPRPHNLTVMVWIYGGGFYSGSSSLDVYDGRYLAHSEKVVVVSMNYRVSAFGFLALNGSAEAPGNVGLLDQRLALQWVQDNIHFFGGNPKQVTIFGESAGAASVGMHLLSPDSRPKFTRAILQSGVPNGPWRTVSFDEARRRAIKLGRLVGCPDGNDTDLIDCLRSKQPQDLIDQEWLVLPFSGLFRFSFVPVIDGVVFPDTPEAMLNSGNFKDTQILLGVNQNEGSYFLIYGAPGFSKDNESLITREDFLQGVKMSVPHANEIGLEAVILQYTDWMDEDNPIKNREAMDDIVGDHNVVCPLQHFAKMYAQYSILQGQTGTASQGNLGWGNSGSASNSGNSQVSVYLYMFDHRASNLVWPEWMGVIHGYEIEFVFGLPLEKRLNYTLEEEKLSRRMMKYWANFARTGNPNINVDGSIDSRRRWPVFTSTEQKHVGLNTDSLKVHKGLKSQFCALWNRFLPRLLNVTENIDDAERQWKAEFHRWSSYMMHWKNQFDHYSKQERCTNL
For test [8], the system named is MDA-MB-231. The test can be described thus: cells. In kind it is functional, cell-based. The following applies: Homo sapiens, MDA-MB-231, 48 h.
Description: Anticancer activity against human MDA-MB-231 cells assessed as reduction in cell growth incubated for 48 hrs by MTT assay
Test [9] concerns CNE. The test can be described thus: cells. The class given is functional, cell-based. As to conditions: Homo sapiens, 48 h.
Description: Anticancer activity against human CNE cells assessed as reduction in cell growth incubated for 48 hrs by MTT assay
The test system of test [10] is SK-OV-3. The experiment in a line: cells. The following applies: Homo sapiens, SK-OV-3, 48 h. The class given is functional, cell-based.
Description: Anticancer activity against human SK-OV-3 cells assessed as reduction in cell growth incubated for 48 hrs by MTT assay
Test [11] in a line: Antiproliferative activity against human GBM-0627-GFD cells assessed as reduction in cell viability by MTT assay. In kind it is functional, cell-based.
Test [12] is described as follows: cells. The following applies: Homo sapiens, SPCA1, 72 h.
Description: Anticancer activity against human SPCA1 cells assessed as reduction in cell viability incubated for 72 hrs by MTT assay
The subject of test [13] is HepG2. The test can be described thus: cells. As to conditions: Homo sapiens, HepG2, 72 h.
Description: Anticancer activity against human HepG2 cells assessed as reduction in cell viability incubated for 72 hrs by MTT assay
For test [14], the system named is CNE-2. The test can be described thus: Anticancer activity against human CNE-2 cells assessed as reduction in cell viability incubated for 72 hrs by MTT assay. As to conditions: CNE-2, 72 h. The class given is functional, cell-based.
Test [15] concerns HCT-116. The experiment in a line: cells. The following applies: Homo sapiens, HCT-116, 72 h.
Description: Anticancer activity against human HCT-116 cells assessed as reduction in cell viability incubated for 72 hrs by MTT assay
The test system of test [16] is HeLa. The test can be described thus: cells. As to conditions: Homo sapiens, 72 h.
Description: Anticancer activity against human HeLa cells assessed as reduction in cell viability incubated for 72 hrs by MTT assay
The test system of test [17] is Escherichia coli. The experiment in a line: microbe, parasite or virus in culture.
Description: Antibacterial activity against Escherichia coli assessed as inhibition of bacterial growth by broth microdilution method
For test [18], the system named is Pseudomonas aeruginosa. The test can be described thus: microbe, parasite or virus in culture. As to conditions: Pseudomonas aeruginosa, 126, 24 h.
Description: Antibacterial activity against multidrug-resistant Pseudomonas aeruginosa 126 clinical isolate assessed as reduction in bacterial growth incubated for 24 hrs by CLSI based broth microdilution method
In test [19] the test system is Acinetobacter baumannii. The experiment in a line: microbe, parasite or virus in culture. The following applies: ATCC 19606.
Description: Antibacterial activity against Acinetobacter baumannii ATCC 19606 assessed as inhibition of bacterial growth by broth microdilution method
For test [20], the system named is Staphylococcus aureus. The experiment in a line: microbe, parasite or virus in culture. The following applies: Staphylococcus aureus, 171, 24 h.
Description: Antimicrobial activity against methicillin-resistant Staphylococcus aureus 171 clinical isolate assessed as bacterial growth inhibition incubated for 24 hrs by CLSI based broth microdilution method

≈ marks a conversion by molar mass, not a printed value.

Cholinesterase, sequence (P81908 whole entry): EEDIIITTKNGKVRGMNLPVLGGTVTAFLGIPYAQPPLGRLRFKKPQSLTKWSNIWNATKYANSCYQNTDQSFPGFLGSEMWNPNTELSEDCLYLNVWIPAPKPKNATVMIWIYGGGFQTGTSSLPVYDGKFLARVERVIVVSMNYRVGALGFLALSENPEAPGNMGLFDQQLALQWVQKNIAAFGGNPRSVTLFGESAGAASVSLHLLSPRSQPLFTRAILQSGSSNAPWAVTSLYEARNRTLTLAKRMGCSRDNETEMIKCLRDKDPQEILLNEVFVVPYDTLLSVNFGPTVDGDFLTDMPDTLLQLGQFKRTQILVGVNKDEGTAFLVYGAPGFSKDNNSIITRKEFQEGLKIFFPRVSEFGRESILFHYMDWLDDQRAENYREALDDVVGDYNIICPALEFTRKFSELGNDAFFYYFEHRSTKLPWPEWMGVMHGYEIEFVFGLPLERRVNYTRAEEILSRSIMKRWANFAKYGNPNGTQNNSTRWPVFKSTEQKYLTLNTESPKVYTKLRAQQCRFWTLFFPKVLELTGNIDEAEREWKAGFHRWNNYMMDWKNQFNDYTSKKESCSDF

With `CC(C)[C@H](NC(=O)c1cc(OCCCc2ccccc2)c2c(c1)C(=O)c1cccc(OCCCc3ccccc3)c1C2=O)C(=O)O`, the IC50 (usually the concentration needed to halve the response being measured) came to 3.6 µM in [1]; 4.5 µM in test [2]; 1.6 µM in test [3]; 4.9 µM in test [4]; 9.4 µM in [5].
`O=C(NCCCCNc1c2c(nc3ccccc13)CCCC2)c1cc(O)c2c(c1)C(=O)c1cccc(O)c1C2=O`: the results for the IC50 in [6] and in test [7] were 0.286 µM and 0.0587 µM, respectively.
Turning to `O=C(Nc1ccc2ncnc(Nc3ccc(F)cc3)c2c1)c1cc(OCc2ccccc2)c2c(c1)C(=O)c1cccc(OCc3ccccc3)c1C2=O`, the IC50 came out at 3 µM in test [8], 12.4 µM in [9] and 20.5 µM in test [10].
`O=C(CCCCCNC(=O)c1cc(O)c2c(c1)C(=O)c1cccc(O)c1C2=O)NO`: the IC50 in [11] was found to be 5.5 µM.
For `O=c1[nH]cc(F)c(=O)[nH]1` [FLUOROURACIL], the IC50 in test [12] stood at 42.2 µM; in [13] it was 30 µM; in [14] it was 40.2 µM.
Turning to `COc1cccc(Nc2ncnc3ccc(NC(=O)c4cc(OCc5ccccc5)c5c(c4)C(=O)c4cccc(OCc6ccccc6)c4C5=O)cc23)c1`, the IC50 in [8] turned out to be 74.1 µM; in test [9], 56.4 µM; in test [10], 68.6 µM.
With `CC(C)[C@H](NC(=O)c1cc(OCc2ccccc2)c2c(c1)C(=O)c1cccc(OCc3ccccc3)c1C2=O)C(=O)O`, the half-maximal inhibitory concentration (IC50) was 36.1 µM in [1]; 36.5 µM in [2]; 21.5 µM in test [3]; 15.6 µM in test [4]; 44.9 µM in test [5].
For `CCOP(=O)(OCC)C(C)(NC(=O)c1cc(O)c2c(c1)C(=O)c1cccc(O)c1C2=O)c1ccc(C)cc1` (configuration not stated), the IC50 in [15] is 30.6 µM; in [12], 16.9 µM; in test [16], more than 50 µM; in test [14] it was 33.8 µM.
For the compound `N[C@@H](CCCCNC(=O)c1cc(O)c2c(c1)C(=O)c1cccc(O)c1C2=O)C(=O)O`, the half-inhibitory concentration (IC50) in test [11] is more than 80 µM.
For `CCOP(=O)(OCC)C(NC(=O)c1cc(O)c2c(c1)C(=O)c1cccc(O)c1C2=O)c1ccccc1OC` (configuration not stated), the 50% inhibitory concentration (IC50) came out at 15 µM in test [12] and 28.6 µM in [14].
Turning to `N#Cc1ccc(C[n+]2ccc(CCCNC(=O)c3cc(O)c4c(c3)C(=O)c3cccc(O)c3C4=O)cc2)cc1.[Br-]`, the MIC in test [17] was 64 µg/mL; in test [18] it was 32 µg/mL; in [19], more than 128 µg/mL; in test [20], 16 µg/mL.
Regarding `CCOP(=O)(OCC)C(C)(CCc1ccccc1)NC(=O)c1cc(O)c2c(c1)C(=O)c1cccc(O)c1C2=O` (configuration not stated), the IC50 in test [15] is 12.7 µM; in [12], 9.01 µM; in test [16] it was 45.4 µM; in test [14], 27.3 µM.
For the compound `CC(C)[C@H](NC(=O)c1cc(OCc2cccc(F)c2)c2c(c1)C(=O)c1cccc(OCc3cccc(F)c3)c1C2=O)C(=O)O`, the IC50 in [1] turned out to be 29.6 µM; in test [2], 38.6 µM; in test [3], 12.9 µM; in [4], 17.8 µM; in [5], 35.4 µM.
With `CCOP(=O)(OCC)C(NC(=O)c1cc(O)c2c(c1)C(=O)c1cccc(O)c1C2=O)c1ccccc1` (configuration not stated), the IC50 is 27.4 µM in test [12] and 34.3 µM in test [14].
With `O=C(NCCCCCCNc1c2c(nc3ccccc13)CCC2)c1cc(O)c2c(c1)C(=O)c1cccc(O)c1C2=O`, the values for the half-inhibitory concentration (IC50) in test [6] and in test [7] were 0.219 µM and 0.543 µM, respectively.
As to `CC(C)c1ccc(COc2cccc3c2C(=O)c2c(OCc4ccc(C(C)C)cc4)cc(C(=O)N[C@H](C(=O)O)C(C)C)cc2C3=O)cc1`, the 50% inhibitory concentration (IC50) in [1] was determined as 5.8 µM; in [2] it was 13.9 µM; in test [3] it was 1.9 µM; in test [4], 9.4 µM; in [5] it was 37.5 µM.
With `CCOP(=O)(OCC)C(NC(=O)c1cc(O)c2c(c1)C(=O)c1cccc(O)c1C2=O)c1cccc(OC)c1` (configuration not stated), the half-inhibitory concentration (IC50) is 28.3 µM in [12] and 24.1 µM in [14].
Turning to `CO/N=C(\C(=O)N[C@@H]1C(=O)N2C(C(=O)O)=C(COC(N)=O)CS[C@H]12)c1ccco1` [CEFUROXIME], the MIC in [17] was 64 µg/mL (≈ 151 µM); in test [18] it was 1020 µg/mL (≈ 2410 µM); in test [19], 1020 µg/mL (≈ 2410 µM); in test [20], 1020 µg/mL (≈ 2410 µM).
In the case of `Cc1ccc(Nc2ncnc3ccc(NC(=O)c4cc(OCc5ccccc5)c5c(c4)C(=O)c4cccc(OCc6ccccc6)c4C5=O)cc23)cc1`, half-maximal inhibition in test [8] (IC50) was put at 3.1 µM.
Take `COc1ccc(Nc2ncnc3ccc(NC(=O)c4cc(OCc5ccccc5)c5c(c4)C(=O)c4cccc(OCc6ccccc6)c4C5=O)cc23)cc1`: the concentration for half-maximal inhibition (IC50) in test [8] is 42.4 µM; in [9], 24.8 µM; in test [10], more than 100 µM.
On to `CCCCOc1cccc2c1C(=O)c1c(OCCCC)cc(C(=O)N[C@H](C(=O)O)C(C)C)cc1C2=O`, for which the IC50 is 54.4 µM in test [1]; more than 100 µM in test [2]; 43.1 µM in test [3]; 28.6 µM in test [4]; 67.8 µM in test [5].
Take `O=C(NCCCCCCNc1c2c(nc3cc(Cl)ccc13)CCCC2)c1cc(O)c2c(c1)C(=O)c1cccc(O)c1C2=O`: the IC50 in [6] came out at 0.773 µM; in test [7], 0.022 µM.
Take `Cc1cccc(Nc2ncnc3ccc(NC(=O)c4cc(OCc5ccccc5)c5c(c4)C(=O)c4cccc(OCc6ccccc6)c4C5=O)cc23)c1`: the IC50 in test [8] was 49.9 µM; in [9], 5.9 µM; in [10], more than 100 µM.
`CCOP(=O)(OCC)C(NC(=O)c1cc(O)c2c(c1)C(=O)c1cccc(O)c1C2=O)c1ccc(OC)cc1` (configuration not stated): the concentration for half-maximal inhibition (IC50) was found to be 38.9 µM in [12] and 42.9 µM in [14].
With `CCOP(=O)(OCC)C(C)(NC(=O)c1cc(O)c2c(c1)C(=O)c1cccc(O)c1C2=O)c1ccccc1` (configuration not stated), the IC50 was 23.4 µM in test [15], 25.1 µM in test [12], more than 50 µM in test [16] and 38.3 µM in test [14].
As for `Cc1ccc(C[n+]2ccc(CCCOC(=O)c3cc(O)c4c(c3)C(=O)c3cccc(O)c3C4=O)cc2)cc1.[Br-]`, the MIC in [17] was 64 µg/mL; in [18] it was 16 µg/mL; in test [19] it was more than 128 µg/mL; in [20] it was 8 µg/mL.
Take `COc1ccc(C[n+]2ccc(CCCOC(=O)c3cc(O)c4c(c3)C(=O)c3cccc(O)c3C4=O)cc2)cc1.[Br-]`: the MIC in test [17] was more than 128 µg/mL; in test [18], 32 µg/mL; in [19] it was 128 µg/mL; in test [20], 16 µg/mL.
For `O=C(NCCCCCCCCNc1c2c(nc3ccccc13)CCCC2)c1cc(O)c2c(c1)C(=O)c1cccc(O)c1C2=O`, the IC50 in test [6] was found to be 0.36 µM; in [7] it was 0.148 µM.
As to `CCOP(=O)(OCC)C(NC(=O)c1cc(O)c2c(c1)C(=O)c1cccc(O)c1C2=O)c1cccc(Cl)c1` (configuration not stated), the concentration for half-maximal inhibition (IC50) in test [15] was 48.2 µM; in [12] it was 28.3 µM; in test [13] it was 39.2 µM; in test [16], 35.2 µM; in test [14], 68 µM.
